Square brackets hold non-standard residues; d marks the D form. Peptide text beside a SMILES is read from it. Cya = N[C@@H](CS(=O)(=O)O)C(=O)O
How the values were obtained:
[1] = tested on: primary mouse Müller cells; test: Trypan blue viability of primary mouse Müller cells exposed to kainic acid; format: cell-based, CD1 mice; conditions: 1.0 mg/mL risuteganib alone
Text: Purpose: Investigate neuroprotective properties of risuteganib in primary mouse Müller cells exposed to kainic acid, a neuroexcitatory compound that activates glutamate receptors, resulting in overstimulation and cell death. Retinal Müller cells support normal functions of neurons and their dysregulation can leads to loss of homeostasis and neuronal cell death.
Methods: Fresh retina were collected from CD1 mice and then mechanically dissociated with sterile Pasteur pipette into small aggregates and seeded into 35 mm culture dishes. All cultures were first left unchanged for 5-6 days and then replenished every 3-4 days. When the cell growth had reached around 80% confluency, retinal aggregates and debris were removed by media washes to form a purified cell monolayer. Cells were then exposed to the experimental conditions: (1) untreated control, (2) 1.0 mg/mL risuteganib, (3) 500 μM kainic acid (KA), and (4) 1.0 mg/mL risuteganib for 24 hours before 500 μM kainic acid exposure. 48 hours after kainic acid treatment, dead and live cell numbers were measured using Trypan blue exclusion assay on a hemocytometer.

[2] = tested on: human retinal Müller cells (MIO-M1); test: MTT cell viability of human Müller cells (MIO-M1); format: cell-based; conditions: 24 hours, normalized to untreated control as 100%
Procedure: Purpose: To determine the effects of risuteganib and anti-VEGF drugs on the cell viability of cultured human retinal Müller cells (MIO-M1).
Methods: The immortalized human retinal Müller cell line (MIO-M1) was obtained from the Department of Cell Biology of the University College, London. Cells were cultured in Dulbecco's Modified Eagle's Medium (DMEM) and plated in 96-well plates for 24 hours before treatment with 0.5×, 1× or 2× concentrations of 1 mg/50 μL risuteganib, or 1× of ranibizumab, bevacizumab or aflibercept. Dosage was based on clinical dose of each compound. The experiments were repeated 3 times with 7-8 replicates each. After 24 hours of drug treatment, MTT NAD(P)H-dependent colorimetric assay was used to assess the number of viable cells present in the cultures. Absorbance ratios were normalized to untreated control as 100%. Statistical analysis was performed in GraphPad Prism software program.

[3] = tested on: primary human RPE cells; test: ROS level (CM-H2DCFDA) in primary human RPE cells exposed to hydroquinone; format: cell-based; conditions: 0.4 mM risuteganib co-treatment with HQ 125-180 uM
Procedure: Purpose: To determine if risuteganib protects against hydroquinone (HQ)-mediated cell injury, elevated ROS level and reduced mitochondrial membrane potential (Δψm) in cultured human RPE cells. Elevated ROS levels increase oxidative stress in the cells, leading to reduced cell health and cell death. Loss of ΔΨm is a marker for early cell death. Methods: Primary human RPE cells were seeded on collagen-coated 96-well plates in triplicates at 8K, 10K and […] cells/well, respectively. Cells reached 80% to 100% confluence 24 hours after plating, and confluent cells were then grown for an additional 4 or 5 days until growth was density arrested. On day 6 after plating, cells in the plate upper half were loaded with 20 μM CM-H2DCFDA (measures ROS level) and in the plate lower half with 10 μM JC-1 (measures Δψm) for 30 minutes at 37° C. […] For the ROS and Δψm assays, a fluorescence plate reader was used to quantify ROS production (490-nm excitation, 522-nm emission), and green monomer of JC-1 (490-nm excitation, 522-nm emission) and red JC-1 aggregate (535-nm excitation, 590-nm emission), respectively. […] The WST reagent was quantified with a plate reader at 440 nm and a reference wavelength at 690 nm. Data were normalized to untreated control as 100% and were expressed as the mean±SD.

Structure (SMILES): C[C@@H](O)[C@H](NC(=O)[C@H](CS(=O)(=O)O)NC(=O)CNC(=O)[C@H](CCCNC(=N)N)NC(=O)CN)C(=O)N1CCC[C@H]1C(=O)O [risuteganib, Glycyl-L-arginylglycyl-3-sulfo-L-alanyl-L-threonyl-L-proline] (H-GRG[Cya]TP-OH)
- Change in cell viability, treatment alone [1]: did not induce detectable change in cell viability
- Cell viability (MTT) ([2]; 0.5× of 1 mg/50 μL): 111.3±2.189
- Cell viability (MTT) ([2]; 1× of 1 mg/50 μL): 113.5±13.5
- Cell viability (MTT) ([2]; 2× of 1 mg/50 μL): 100.3±7.8
- Reduction of HQ-induced ROS production [3]: 61%
